Experimental data from patent publication US8772297B2, “TGF-β signal transduction inhibitor” (Kyoto University, priority 2010, dated 2014).

tested on: TGF-β signal transduction (Smad3/Smad4 complex activation) in x9CAGA/CCL64 cells; experiment: Evaluation of TGF-β signal transduction inhibitory activity (CAGA-luciferase reporter, x9CAGA/CCL64 cells stimulated with human TGF-β1); assay type: cell-based, mink; details: 0.5 ng/ml human TGF-β1
Method: The biological activity of a compound was determined by measuring the activation of Smad3/Smad4 complex which is a transcription factor showing activation induced by TGF-β stimulation. That is, a reporter plasmid having a DNA sequence (CAGA sequence), which is activated by binding to Smad3/Smad4 complex, is linked to the upstream of the luciferase gene (luminescence enzyme) was prepared. Mink lung epithelial cells CCL64 (named as x9CAGA/CCL64 cells) stably incorporating this reporter plasmid were established. The x9CAGA/CCL64 cells were cultured in DMEM medium containing 10% FBS, penicillin (100 U/ml), streptomycin ([…]), and blasticidin S (1 μg/ml). The x9CAGA/CCL64 cells were seeded in a 96 well plate at a concentration of 1.0×10^4 cells/well, and cultured in a 5% CO2 incubator at 37° C. The next day, the medium was changed to DMEM medium containing 0.2% FBS, and the test compound was added. […] After culture for 16 hr, the cells were washed with PBS, and lysed with 30 μl of cell lysis solution. […] The luminescence level of each well was measured using a Packard EnVision plate reader. The TGF-β signal transduction inhibitory activity of each compound in the x9CAGA/CCL64 cells was calculated from the ratio of the measurement values of the test compound-free well and the well with addition.

Compound	IC50
Cc1c(C)c(S(=O)(=O)NCC2CCN(C(=O)OC(C)(C)C)CC2)c(C)c(S(=O)(=O)Nc2ccc(C(C)(C)C)cc2)c1C [Y335, 4-{[3-(4-tert-butylphenylsulfamoyl)-2,4,5,6-tetramethylbenzenesulfonylamino]methyl}piperidine-1-carboxylic acid tert-butyl ester]	0.8 µM
CN(C)c1ccc(NS(=O)(=O)c2cccc(S(=O)(=O)NCC3CCNCC3)c2)cc1-c1ccco1 [Y516, 4-{[3-(4-dimethylamino-3-furan-2-yl-phenylsulfamoyl)benzenesulfonylamino]methyl}piperidine]	66 µM
CCCC(=O)N1CCC(CNS(=O)(=O)c2cccc(S(=O)(=O)Nc3ccc(N(C)C)c(-c4ccco4)c3)c2)CC1 [Y639, 4-{[3-(4-dimethylamino-3-furan-2-yl-phenylsulfamoyl)benzenesulfonylamino]methyl}-1-butyryl-piperidine]	3.9 µM

same assay, conditions: 20 μM test compound, 0.5 ng/ml human TGF-β1

Compound	inhibitory activity (%)	inhibition at 20 µM
4-{[3-(4-oxanylmethoxyphenylsulfamoyl)benzenesulfonylamino]methyl}-piperidine-1-carboxylic acid tert-butyl ester [Y198]	(>30.0%)	–
Cc1ccc(N(C)S(=O)(=O)c2cccc(S(=O)(=O)N(C)CC3CCN(C(=O)OC(C)(C)C)CC3)c2)cc1 [Y191, 4-({methyl-[3-(methyl-p-tolylsulfamoyl)benzenesulfonyl]amino}methyl)piperidine-1-carboxylic acid tert-butyl ester]	–	54%
CC(=O)c1ccc(NS(=O)(=O)c2cccc(S(=O)(=O)NCC3CCN(C(=O)OC(C)(C)C)CC3)c2)cc1 [Y192, 4-{[3-(4-acetylphenylsulfamoyl)benzenesulfonylamino]methyl}piperidine-1-carboxylic acid tert-butyl ester]	–	> 18.4%
CC(O)c1ccc(NS(=O)(=O)c2cccc(S(=O)(=O)NCC3CCN(C(=O)OC(C)(C)C)CC3)c2)cc1 (centres unmarked) [Y195, 4-({3-[4-(1-hydroxyethyl)phenylsulfamoyl]benzenesulfonylamino}methyl)-piperidine-1-carboxylic acid tert-butyl ester]	–	> 12.2%
CN(CC1CCN(C(=O)OC(C)(C)C)CC1)S(=O)(=O)c1cccc(S(=O)(=O)N(C)c2ccc(C(C)(C)C)cc2)c1 [Y205, 4-[({3-[(4-tert-butylphenyl)methylsulfamoyl]benzenesulfonyl}methylamino)-methyl]piperidine-1-carboxylic acid tert-butyl ester]	–	60%

same assay, conditions: 50 μM test compound, 0.5 ng/ml human TGF-β1

Compound	inhibition at 50 µM
CC(C)(C)OC(=O)N1CCC(CNS(=O)(=O)c2cccc(S(=O)(=O)N3CCCCC3)c2)CC1 [Y029, 4-{[3-(piperidine-1-sulfonyl)benzenesulfonylamino]methyl}piperidine-1-carboxylic acid tert-butyl ester]	88%
CC(C)(C)OC(=O)N1CCN(S(=O)(=O)c2cccc(S(=O)(=O)N3CCCCC3)c2)CC1 [Y043, 4-[3-(piperidine-1-sulfonyl)benzenesulfonyl]piperazine-1-carboxylic acid tert-butyl ester]	67%
O=C(OCc1ccccc1)N1CCC(CNS(=O)(=O)c2cccc(S(=O)(=O)N3CCCCC3)c2)CC1 [Y053, 4-{[3-(piperidine-1-sulfonyl)benzenesulfonylamino]-methyl}-piperidine-1-carboxylic acid benzyl ester]	67%
CCN(CC)S(=O)(=O)c1cccc(S(=O)(=O)NCC2CCN(C(=O)OC(C)(C)C)CC2)c1 [Y080, 4-[(3-diethylsulfamoylbenzenesulfonylamino)methyl]piperidine-1-carboxylic acid tert-butyl ester]	66%
CC(C)(C)OC(=O)N1CCC(CNS(=O)(=O)c2cccc(S(=O)(=O)N3CCOCC3)c2)CC1 [Y081, 4-{[3-(morpholine-4-sulfonyl)benzenesulfonylamino]methyl}piperidine-1-carboxylic acid tert-butyl ester]	45%
CC(C)(C)OC(=O)N1CCC(CNS(=O)(=O)c2cccc(S(N)(=O)=O)c2)CC1 [Y082, 4-[(3-sulfamoylbenzenesulfonylamino)methyl]piperidine-1-carboxylic acid tert-butyl ester]	29%
CC(C)(C)OC(=O)N1CCC(CNS(=O)(=O)c2ccccc2)CC1 [Y083, 4-(benzenesulfonylaminomethyl)piperidine-1-carboxylic acid tert-butyl ester]	24%
CC(C)(C)OC(=O)N1CCC(CNS(=O)(=O)c2cccc(S(=O)(=O)NCC3CCCCC3)c2)CC1 [Y101, 4-{[3-(cyclohexylmethylsulfamoyl)benzenesulfonylamino]methyl}-piperidine-1-carboxylic acid tert-butyl ester]	74%

tested on: mouse bile duct ligation induced hepatic fibrosis model; experiment: Anti-fibrillization action in mouse bile duct ligation induced hepatic fibrosis model (BDL model); assay type: in vivo; details: ICR mice, tail vein once a day for 14 days, qPCR vs GAPDH, FIG. 4
Method: Hepatopathy caused by accumulation of bile in the liver and therewith associated liver fibrillization are induced by ligating the bile duct of mouse. The effect of the test compound on the hepatopathy and liver fibrillization associated therewith was evaluated. […]
mRNA was extracted from the hepatic tissue preserved in RNALater by using an RNA purification kit RNeasy Micro Kit (manufactured by QIAGEN), and the RNA concentration was determined using a spectrophotometer (Nano Drop). […] Using SYBR® Premix EX Taq™ (manufactured by TAKARA), a reaction mixture was prepared according to the package insert, qPCR reaction was performed using respective primers for αSMA and the internal standard GAPDH (manufactured by Invitrogen), and the mRNA expression level was quantified.

Compound	mRNA expression level of α smooth muscle actin in the liver tissue
CN(C)c1ccc(NS(=O)(=O)c2cccc(S(=O)(=O)NCC3CCNCC3)c2)cc1-c1ccco1 [Y516, 4-{[3-(4-dimethylamino-3-furan-2-yl-phenylsulfamoyl)benzenesulfonylamino]methyl}piperidine]	significantly suppressed
